Experimental data: patent publication US11324762B2, “Deuterated derivatives of psilocybin and uses thereof” (Lennham Pharmaceuticals, Inc., priority 2020, dated 2022)

Assays:
Type in all cases: in vitro ADME
[1] = metabolic stability and metabolite formation in human hepatocytes; conditions: 1.0 million viable cells/ml, 37° C., 0-60 min
Description: (§1) A study was conducted to assess the metabolic stability and metabolite formulation of psilocin and d10-psilocin (the compound of Formula (IB-1)) in human hepatocytes under the conditions set forth in Table 1.

human hepatocytes = test: as above; conditions: 1 μM, 60 min
Description: as §1

human MAO-A [2] = target: T1, human MAO-A (Homo sapiens, UniProt P21397); test: metabolism of psilocin and d10-psilocin by human MAO-A (Example 3); conditions: 0.2 μM, protein 1 mg/ml, 0-30 min, FIG. 2
T1 sequence (P21397 1-527): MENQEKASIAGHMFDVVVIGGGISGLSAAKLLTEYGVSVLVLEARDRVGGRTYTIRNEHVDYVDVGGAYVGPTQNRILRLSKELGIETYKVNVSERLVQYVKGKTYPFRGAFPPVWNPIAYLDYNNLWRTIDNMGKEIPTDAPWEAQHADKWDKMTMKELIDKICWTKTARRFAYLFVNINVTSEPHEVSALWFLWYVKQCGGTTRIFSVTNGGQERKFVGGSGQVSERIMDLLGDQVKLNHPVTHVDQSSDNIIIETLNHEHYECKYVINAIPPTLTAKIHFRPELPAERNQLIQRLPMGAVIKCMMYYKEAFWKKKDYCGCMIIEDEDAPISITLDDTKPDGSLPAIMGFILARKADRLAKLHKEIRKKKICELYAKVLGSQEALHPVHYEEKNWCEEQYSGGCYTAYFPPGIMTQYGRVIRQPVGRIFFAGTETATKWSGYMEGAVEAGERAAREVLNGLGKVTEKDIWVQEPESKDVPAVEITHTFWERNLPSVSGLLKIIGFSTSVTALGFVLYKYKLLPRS
Description: A study was conducted to assess the metabolism of psilocin and d10-psilocin (the compound of Formula (IB-1)) by human MAO-A under the conditions set forth in Table 3.

human MAO-A [3] = target: T1, human MAO-A; test: metabolism of psilocin by human MAO-A (Example 2); conditions: 0.2 and 2 μM, protein 0.03-1 mg/ml, 0-30 min, FIGS. 1A & 1B

Row | Structure (SMILES) | half-life at 1 μM [1] | metabolite 4-hydroxy-indole-3-acetic acid after 60-minute incubation (human hepatocytes) | parent remained after the 60-minute incubation (human hepatocytes) | rate of metabolism by human MAO-A compared with psilocin (human MAO-A [2]) | metabolism by human MAO-A (human MAO-A [3])
1 | [2H]C([2H])([2H])N(C([2H])([2H])[2H])C([2H])([2H])C([2H])([2H])c1c[nH]c2cccc(O)c12 [d10-psilocin] | 4.97 h | undetected | approximately 84% | metabolized more slowly by human MAO-A than psilocin | –
2 | CN(C)CCc1c[nH]c2cccc(O)c12 [psilocin, 4-hydroxy-N,N-dimethyltryptamine] | 2.97 h | – | approximately 78% | – | metabolized by human MAO-A
